Experimental data as given in patent US20160075765A1, “MODIFIED COLLAGEN MOLECULES” (AGENCY FOR SCIENCE, TECHNOLOGY AND RESEARCH, priority 2013, published 2016).

Legend:
[1] = CD wavelength scan, helical conformation at a set temperature; type: physicochemical; conditions: 200 μM peptide, pH 7.0
Experimental: (§1) CD spectra were recorded on an Aviv 410 circular dichroism spectrometer equipped with temperature controller. Peptide solutions at concentrations of 200 μM were used. All sample solutions made in 10 mM sodium phosphate-dibasic buffer (pH 7.0) were equilibrated for 24 hr at 4° C. before CD measurements. A Quartz Cell of 1 mm path length was used. For wavelength scan, temperature was increased to the desired points at a rate of 10° C./hr and the sample solutions were equilibrated for 10 min before the measurements. Spectra were recorded from 260 to 190 nm and mean residue ellipticity [θ] was calculated as follows;
(§2) θ represents the ellipticity in millidegrees, N the number of amino acid residues, c the molar concentration in mol·L^−1, and l the cell path length in cm. Thermal denaturation curves were obtained at final peptide concentrations of 0.2 mM and molar ellipticity at 225 nm was measured as a function of temperature in a range of 5 to 80° C. at a heating rate of 10° C./hr. All annealed samples were heated for 30 min at 85° C. and then cooled down to 4° C. at a rate of 1° C./min followed by equilibration for 24 hr at 4° C. before the measurements. The melting temperatures were determined from the minimum points in the first derivative of the melting curves.

[2] = Thermal unfolding (thermal denaturation) followed by circular dichroism at 225 nm; type: physicochemical; conditions: CD, minimum of the derivative of fraction folded plot; 0.2 mM peptide, 10 mM sodium phosphate pH 7.0; not preheated; mixtures at ratio 1:2
Experimental: as §1, §2

Substance | conformation by CD at 25° C. [1] | Tm (melting temperature of triple helix) [2]
Ac-(PXG)2-(PKG)4-(PXG)2-C(O)NH2 [Peptide 2] | random coil conformations | No triple helix
Ac-(PXG)2-(PRG)4-(PXG)2-C(O)NH2 [Peptide 3] | retained the PPII helical structure | 39.4 °C
